From ChEMBL document CHEMBL1130709, “Synthesis and phototoxic property of tetra- and octa-glycoconjugated tetraphenylchlorins” (Bioorg Med Chem Lett, 1998)

experiment: Photosensitizing ability was evaluated by the degradation of DPBF by singlet oxygen in DMSO solution at 27 degree Centigrade

Compared with `OC[C@@H]1O[C@H](Oc2ccc(-c3c4nc(c(-c5ccc(O[C@@H]6O[C@H](CO)[C@@H](O)[C@H](O)[C@H]6O)cc5)c5nc(c(-c6ccc(O[C@@H]7O[C@H](CO)[C@@H](O)[C@H](O)[C@H]7O)cc6)c6ccc([nH]6)c(-c6ccc(O[C@H]7O[C@@H](CO)[C@H](O)[C@@H](O)[C@@H]7O)cc6)c6ccc3[nH]6)CC5)C=C4)cc2)[C@@H](O)[C@H](O)[C@H]1O`, `OC[C@@H]1O[C@H](Oc2ccc(-c3c4nc(c(-c5ccc(O[C@@H]6O[C@H](CO)[C@H](O)[C@H](O)[C@H]6O)cc5)c5nc(c(-c6ccc(O[C@@H]7O[C@H](CO)[C@H](O)[C@H](O)[C@H]7O)cc6)c6ccc([nH]6)c(-c6ccc(O[C@H]7O[C@@H](CO)[C@@H](O)[C@@H](O)[C@@H]7O)cc6)c6ccc3[nH]6)CC5)C=C4)cc2)[C@@H](O)[C@H](O)[C@@H]1O` is 1.5-fold lower in k obs: 0.0094 s⁻¹ for the first, 0.0062 s⁻¹ for the second.

`CC(=O)OC[C@@H]1O[C@H](Oc2cc(O[C@@H]3O[C@H](COC(C)=O)[C@@H](OC(C)=O)[C@H](OC(C)=O)[C@H]3OC(C)=O)cc(-c3c4nc(c(-c5cc(O[C@H]6O[C@@H](COC(C)=O)[C@H](OC(C)=O)[C@@H](OC(C)=O)[C@@H]6OC(C)=O)cc(O[C@H]6O[C@@H](COC(C)=O)[C@H](OC(C)=O)[C@@H](OC(C)=O)[C@@H]6OC(C)=O)c5)c5ccc([nH]5)c(-c5cc(O[C@H]6O[C@@H](COC(C)=O)[C@H](OC(C)=O)[C@@H](OC(C)=O)[C@@H]6OC(C)=O)cc(O[C@@H]6O[C@H](COC(C)=O)[C@@H](OC(C)=O)[C@H](OC(C)=O)[C@H]6OC(C)=O)c5)c5ccc([nH]5)c(-c5cc(O[C@@H]6O[C@H](COC(C)=O)[C@@H](OC(C)=O)[C@H](OC(C)=O)[C@H]6OC(C)=O)cc(O[C@@H]6O[C@H](COC(C)=O)[C@@H](OC(C)=O)[C@H](OC(C)=O)[C@H]6OC(C)=O)c5)c5nc3CC5)C=C4)c2)[C@@H](OC(C)=O)[C@H](OC(C)=O)[C@H]1OC(C)=O` and `CC(=O)OC[C@@H]1O[C@H](Oc2ccc(-c3c4nc(c(-c5ccc(O[C@@H]6O[C@H](COC(C)=O)[C@@H](OC(C)=O)[C@H](OC(C)=O)[C@H]6OC(C)=O)cc5)c5nc(c(-c6ccc(O[C@@H]7O[C@H](COC(C)=O)[C@@H](OC(C)=O)[C@H](OC(C)=O)[C@H]7OC(C)=O)cc6)c6ccc([nH]6)c(-c6ccc(O[C@H]7O[C@@H](COC(C)=O)[C@H](OC(C)=O)[C@@H](OC(C)=O)[C@@H]7OC(C)=O)cc6)c6ccc3[nH]6)CC5)C=C4)cc2)[C@@H](OC(C)=O)[C@H](OC(C)=O)[C@H]1OC(C)=O` are within 1.5-fold of each other in k obs: 0.011 s⁻¹ for the first, 0.012 s⁻¹ for the second.

First: CC(=O)OC[C@@H]1O[C@H](Oc2ccc(-c3c4nc(c(-c5ccc(O[C@@H]6O[C@H](COC(C)=O)[C@H](OC(C)=O)[C@H](OC(C)=O)[C@H]6OC(C)=O)cc5)c5nc(c(-c6ccc(O[C@@H]7O[C@H](COC(C)=O)[C@H](OC(C)=O)[C@H](OC(C)=O)[C@H]7OC(C)=O)cc6)c6ccc([nH]6)c(-c6ccc(O[C@H]7O[C@@H](COC(C)=O)[C@@H](OC(C)=O)[C@@H](OC(C)=O)[C@@H]7OC(C)=O)cc6)c6ccc3[nH]6)CC5)C=C4)cc2)[C@@H](OC(C)=O)[C@H](OC(C)=O)[C@@H]1OC(C)=O
Second: OC[C@@H]1O[C@H](Oc2cc(O[C@H]3O[C@@H](CO)[C@H](O)[C@@H](O)[C@@H]3O)cc(-c3c4nc(c(-c5cc(O[C@@H]6O[C@H](CO)[C@@H](O)[C@H](O)[C@H]6O)cc(O[C@@H]6O[C@H](CO)[C@@H](O)[C@H](O)[C@H]6O)c5)c5nc(c(-c6cc(O[C@@H]7O[C@H](CO)[C@@H](O)[C@H](O)[C@H]7O)cc(O[C@@H]7O[C@H](CO)[C@@H](O)[C@H](O)[C@H]7O)c6)c6ccc([nH]6)c(-c6cc(O[C@@H]7O[C@H](CO)[C@@H](O)[C@H](O)[C@H]7O)cc(O[C@@H]7O[C@H](CO)[C@@H](O)[C@H](O)[C@H]7O)c6)c6ccc3[nH]6)CC5)C=C4)c2)[C@@H](O)[C@H](O)[C@H]1O
The k obs of the first is 1.6-fold lower: 0.0068 s⁻¹ for the first, 0.011 s⁻¹ for the second.
